# Reference: ChEMBL document CHEMBL1201862, “PubChem BioAssay data set” (2004)
# Active and inactive are the calls of the source.
# Columns and labels:
# [1] = biological target: Sentrin-specific protease 1 (Homo sapiens, UniProt Q9P0U3); assay: Dose response confirmation of small molecule inhibitors of the catalytic domain of the SUMO protease, SENP1 in a FRET assay.; assay type: functional; details: read-out: IC50_Mean
# [2] = biological target: Genome polyprotein (dengue virus type 2, UniProt P29990); assay: flavivirus cap methylation enzyme inhibition – biochemical, confirmation dose response, primary screen (AID 588689); assay type: functional
# [3] = biological target: T1, Small ubiquitin-related modifier 2 (Homo sapiens, UniProt P61956); assay: disruption of SUMO2 interaction with SIM peptide – biochemical, fluorescence polarization, uHTS hits, selectivity assay for SUMO1 interaction inhibitor project, dose response (AID 624385); assay type: functional; details: read-out: IC50_Mean
# [4] = biological target: T2, Small ubiquitin-related modifier 1 (Homo sapiens, UniProt P63165); assay: SUMO1 protein interaction blockers, potency – biochemical, fluorescence polarization, uHTS hits, dose response (AID 624382); assay type: functional; details: read-out: IC50_Mean
# [5] = biological target: T1, Small ubiquitin-related modifier 2; assay: SUMO2 binding disruption by SUMO1 hits – biochemical, FRET, human SUMO2, uHTS hits, selectivity assay for SUMO1 interaction inhibitor project, dose response (AID 624384); assay type: functional; details: read-out: IC50_Mean
# [6] = biological target: T2, Small ubiquitin-related modifier 1; assay: SUMO1 protein-protein binding blockers, potency – biochemical, FRET, dose response (AID 624383); assay type: functional; details: read-out: IC50_Mean
# [7] = biological target: T3, Rac GTPase-activating protein 1 (Homo sapiens, UniProt Q9H0H5); assay: blockers of MgcRacGAP-driven Rac1 GTP hydrolysis – biochemical, ADP Hunter fluorescence, primary and confirmatory, confirmation (AID 624330); assay type: functional
# T3 sequence (Q9H0H5 whole entry): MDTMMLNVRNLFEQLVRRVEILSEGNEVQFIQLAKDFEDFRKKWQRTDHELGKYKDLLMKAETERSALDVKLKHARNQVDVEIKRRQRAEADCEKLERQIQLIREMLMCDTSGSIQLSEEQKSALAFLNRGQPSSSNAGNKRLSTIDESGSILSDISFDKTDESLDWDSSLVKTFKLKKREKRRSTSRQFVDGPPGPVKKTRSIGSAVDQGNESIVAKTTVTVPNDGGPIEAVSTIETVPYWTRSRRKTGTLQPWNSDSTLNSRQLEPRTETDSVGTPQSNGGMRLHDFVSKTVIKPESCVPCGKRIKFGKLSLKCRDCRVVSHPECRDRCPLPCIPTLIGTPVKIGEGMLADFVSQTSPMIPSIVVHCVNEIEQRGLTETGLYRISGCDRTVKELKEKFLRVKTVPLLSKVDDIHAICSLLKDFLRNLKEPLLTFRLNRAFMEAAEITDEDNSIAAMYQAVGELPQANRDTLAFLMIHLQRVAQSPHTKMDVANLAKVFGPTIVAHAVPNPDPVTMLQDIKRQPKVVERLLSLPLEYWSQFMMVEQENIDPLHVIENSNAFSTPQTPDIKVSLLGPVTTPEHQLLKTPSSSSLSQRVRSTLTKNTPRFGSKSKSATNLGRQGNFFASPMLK
# [8] = biological target: T4, Replicative DNA helicase DnaB (Mycobacterium tuberculosis, UniProt P9WMR3); assay: DnaB intein splicing inhibitors, dose response, biochemical, cell-free fluorescence (AID 449749); assay type: functional
# T4 sequence (P9WMR3 whole entry): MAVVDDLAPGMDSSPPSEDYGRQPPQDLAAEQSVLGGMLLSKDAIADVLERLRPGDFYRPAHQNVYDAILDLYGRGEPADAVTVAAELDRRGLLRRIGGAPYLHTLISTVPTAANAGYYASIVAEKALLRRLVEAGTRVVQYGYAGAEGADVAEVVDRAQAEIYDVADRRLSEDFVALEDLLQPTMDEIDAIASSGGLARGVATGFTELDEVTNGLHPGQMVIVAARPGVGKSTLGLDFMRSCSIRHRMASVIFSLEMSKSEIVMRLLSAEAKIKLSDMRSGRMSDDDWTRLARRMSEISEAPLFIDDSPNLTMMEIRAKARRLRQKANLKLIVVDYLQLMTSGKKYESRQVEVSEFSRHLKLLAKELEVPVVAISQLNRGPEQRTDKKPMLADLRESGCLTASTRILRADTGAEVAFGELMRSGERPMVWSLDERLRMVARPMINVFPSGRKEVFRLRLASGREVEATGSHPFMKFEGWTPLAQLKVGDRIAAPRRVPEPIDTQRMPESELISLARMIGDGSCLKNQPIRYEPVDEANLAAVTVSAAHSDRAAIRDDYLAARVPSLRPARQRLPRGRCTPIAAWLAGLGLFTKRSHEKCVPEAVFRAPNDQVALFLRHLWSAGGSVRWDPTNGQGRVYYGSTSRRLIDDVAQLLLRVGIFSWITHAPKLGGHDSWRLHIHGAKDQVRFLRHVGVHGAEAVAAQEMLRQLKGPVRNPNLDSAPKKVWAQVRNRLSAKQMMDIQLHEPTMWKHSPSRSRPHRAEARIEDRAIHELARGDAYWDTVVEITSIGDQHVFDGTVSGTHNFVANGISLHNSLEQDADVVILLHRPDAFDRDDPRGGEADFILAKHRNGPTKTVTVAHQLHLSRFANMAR
# [9] = biological target: T5, Apoptotic protease-activating factor 1 (Homo sapiens, UniProt O14727); assay type: functional
# T5 sequence (O14727 whole entry): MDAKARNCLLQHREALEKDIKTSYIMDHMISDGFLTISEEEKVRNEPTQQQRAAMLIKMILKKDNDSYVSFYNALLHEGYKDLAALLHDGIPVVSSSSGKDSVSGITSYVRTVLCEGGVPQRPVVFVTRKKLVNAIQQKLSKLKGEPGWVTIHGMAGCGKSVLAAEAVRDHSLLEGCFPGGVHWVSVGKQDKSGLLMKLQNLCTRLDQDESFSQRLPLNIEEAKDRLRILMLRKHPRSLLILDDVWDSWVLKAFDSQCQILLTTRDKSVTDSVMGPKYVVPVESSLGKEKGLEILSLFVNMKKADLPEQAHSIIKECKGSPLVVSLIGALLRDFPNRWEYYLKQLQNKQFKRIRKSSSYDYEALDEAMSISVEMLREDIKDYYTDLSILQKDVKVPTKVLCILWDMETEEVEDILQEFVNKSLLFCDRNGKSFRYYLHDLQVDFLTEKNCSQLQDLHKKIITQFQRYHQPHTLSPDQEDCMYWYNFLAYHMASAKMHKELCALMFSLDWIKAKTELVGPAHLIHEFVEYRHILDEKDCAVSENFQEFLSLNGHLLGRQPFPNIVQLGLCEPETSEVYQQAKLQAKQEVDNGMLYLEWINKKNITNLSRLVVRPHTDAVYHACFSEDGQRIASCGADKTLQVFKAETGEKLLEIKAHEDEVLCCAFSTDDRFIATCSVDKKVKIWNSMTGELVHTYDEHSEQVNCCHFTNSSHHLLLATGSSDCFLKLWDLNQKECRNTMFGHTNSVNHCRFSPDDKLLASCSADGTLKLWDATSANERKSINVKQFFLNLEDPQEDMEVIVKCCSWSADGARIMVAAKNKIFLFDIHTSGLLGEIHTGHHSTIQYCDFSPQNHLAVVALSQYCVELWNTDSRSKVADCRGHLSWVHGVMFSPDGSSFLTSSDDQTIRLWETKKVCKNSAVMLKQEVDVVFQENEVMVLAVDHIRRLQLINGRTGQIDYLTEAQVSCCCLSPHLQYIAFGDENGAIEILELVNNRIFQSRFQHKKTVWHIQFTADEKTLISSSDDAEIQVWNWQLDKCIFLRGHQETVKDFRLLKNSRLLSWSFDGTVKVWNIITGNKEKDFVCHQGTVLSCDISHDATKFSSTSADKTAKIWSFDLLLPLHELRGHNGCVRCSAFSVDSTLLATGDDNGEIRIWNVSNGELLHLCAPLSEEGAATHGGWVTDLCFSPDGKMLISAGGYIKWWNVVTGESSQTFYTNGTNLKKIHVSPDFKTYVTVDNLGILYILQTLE
# [10] = biological target: T6, Protein RecA (Mycobacterium tuberculosis, UniProt P9WHJ3); assay: Fluorescence Cell-Free Homogeneous Dose Retest to Identify Inhibitors of RecA-Intein Splicing Activity. [Related pubchem assays (depositor defined):AID2097, AID2223, AID489010, AID492950]; assay type: functional
# T6 sequence (P9WHJ3 whole entry): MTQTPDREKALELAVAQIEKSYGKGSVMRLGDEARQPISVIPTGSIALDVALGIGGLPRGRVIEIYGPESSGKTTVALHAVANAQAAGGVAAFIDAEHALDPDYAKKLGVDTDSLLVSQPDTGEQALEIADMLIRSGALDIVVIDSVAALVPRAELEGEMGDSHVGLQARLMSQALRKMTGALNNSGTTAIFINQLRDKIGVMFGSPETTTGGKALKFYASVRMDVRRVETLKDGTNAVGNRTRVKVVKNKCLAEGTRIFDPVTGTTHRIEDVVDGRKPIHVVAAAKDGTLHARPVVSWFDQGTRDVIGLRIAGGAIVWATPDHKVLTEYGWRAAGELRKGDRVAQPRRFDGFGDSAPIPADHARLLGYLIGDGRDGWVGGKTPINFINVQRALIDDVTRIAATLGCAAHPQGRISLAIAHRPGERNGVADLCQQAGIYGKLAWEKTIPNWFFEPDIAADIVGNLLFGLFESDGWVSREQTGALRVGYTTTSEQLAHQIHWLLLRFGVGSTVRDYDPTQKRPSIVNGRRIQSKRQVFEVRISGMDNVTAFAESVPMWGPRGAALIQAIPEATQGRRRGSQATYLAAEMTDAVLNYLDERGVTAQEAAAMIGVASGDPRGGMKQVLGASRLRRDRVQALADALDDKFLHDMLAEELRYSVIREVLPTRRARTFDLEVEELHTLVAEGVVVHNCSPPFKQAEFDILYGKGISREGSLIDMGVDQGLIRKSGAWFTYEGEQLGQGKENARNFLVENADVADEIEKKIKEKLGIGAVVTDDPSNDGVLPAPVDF
# [11] = biological target: Arf-GAP with SH3 domain, ANK repeat and PH domain-containing protein 1 (Homo sapiens, UniProt Q9ULH1); assay type: functional;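 further: biochemical fluorescence polarization dose–response screen measuring inhibition of ASAP1; ASAP1 GAP domain stimulating GTP hydrolysis by truncated human ARF1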
# [12] = biological target: T7, Tyrosyl-DNA phosphodiesterase 2 (Homo sapiens, UniProt O95551); assay: potency against TDP2 phosphodiesterase activity – biochemical, epi absorbance, IC50, dose response (AID 743297)
# T7 sequence (O95551 whole entry): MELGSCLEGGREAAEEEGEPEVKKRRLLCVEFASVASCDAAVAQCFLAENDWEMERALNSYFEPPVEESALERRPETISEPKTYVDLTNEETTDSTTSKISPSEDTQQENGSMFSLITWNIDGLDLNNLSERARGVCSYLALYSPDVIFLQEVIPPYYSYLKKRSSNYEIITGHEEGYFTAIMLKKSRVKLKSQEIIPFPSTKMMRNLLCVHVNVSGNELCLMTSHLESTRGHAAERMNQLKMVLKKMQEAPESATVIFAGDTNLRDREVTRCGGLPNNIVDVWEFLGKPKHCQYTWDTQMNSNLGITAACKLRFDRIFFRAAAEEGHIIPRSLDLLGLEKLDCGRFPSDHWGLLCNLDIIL
# [13] = biological target: Carboxy-terminal domain RNA polymerase II polypeptide A small phosphatase 1 (Homo sapiens, UniProt Q9GZU7); assay: CTDSP1 inhibitors, concentration-response, biochemical, absorbance readout, ultra-high-throughput screen actives (AID 540297); assay type: functional
# [14] = biological target: T8, Probable nicotinate-nucleotide adenylyltransferase (Staphylococcus aureus (strain N315), UniProt P65502); assay type: functional, Staphylococcus aureus subsp. aureus N315;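 on IC50 Mean: confirmatory dose-response retesting of NadD inhibitor hits first found in an ultra-high-throughput screen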
# [15] = biological target: T8, Probable nicotinate-nucleotide adenylyltransferase; assay type: functional, Staphylococcus aureus subsp. aureus N315; details: read-out: IC50_Mean
# [16] = Inhibition of T. cruzi Tulahuen strain amastigotes in L-6 muscle cells Measured in Cell-Based and Microorganism Combination System Using Plate Reader - 2138-03_Inhibitor_Dose_CherryPick_Activity.; assay type: functional; details: Rattus norvegicus, L6
# [17] = L6 myocyte viability loss – cell-based, plate reader, cherry-pick, cytotoxicity control, dose response (AID 651896); assay type: functional
# [18] = Inhibition of Plasmodium falciparum NF54 Measured in Cell-Based System Using Plate Reader - 2138-11_Inhibitor_Dose_CherryPick_Activity.; assay type: functional
# [19] = antileishmanial activity on axenic amastigotes – plate reader, cherry pick, dose response (AID 651891); assay type: functional, cell-based; details: Leishmania donovani
# [20] = intracellular Trypanosoma cruzi inhibitors in host cells – cell-based, plate reader, cherry-pick samples, set 3, dose response (AID 651818); assay type: functional;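 further: compounds incubated with infected cells for about four days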
# [21] = African trypanosome bloodstream form growth inhibition – STIB900 strain, plate reader, cherry pick, dose response (AID 651893); assay type: functional, cell-based, Trypanosoma brucei rhodesiense; details: Trypanosoma brucei
# [22] = mouse fibroblast viability loss – cell-based, cherry-pick samples, set 2, cytotoxicity control for T. cruzi growth inhibitor project, dose response (AID 651817); assay type: functional; details: NIH3T3
# T1 sequence (P61956 whole entry): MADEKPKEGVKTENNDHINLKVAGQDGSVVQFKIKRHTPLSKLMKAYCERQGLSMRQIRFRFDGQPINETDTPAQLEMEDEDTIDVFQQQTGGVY
# T2 sequence (P63165 whole entry): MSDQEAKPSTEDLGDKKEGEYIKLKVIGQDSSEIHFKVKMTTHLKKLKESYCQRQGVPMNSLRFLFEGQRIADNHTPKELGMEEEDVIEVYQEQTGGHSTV
# T8 sequence (P65502 whole entry): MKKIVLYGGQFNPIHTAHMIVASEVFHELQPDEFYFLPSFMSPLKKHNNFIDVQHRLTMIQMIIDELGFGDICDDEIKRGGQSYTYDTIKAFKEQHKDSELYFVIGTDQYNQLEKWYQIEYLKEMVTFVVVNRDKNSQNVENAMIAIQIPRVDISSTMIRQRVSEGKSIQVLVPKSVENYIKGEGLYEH
# Arf-GAP with SH3 domain, ANK repeat and PH domain-containing protein 1, sequence (Q9ULH1 whole entry, the tested form may be a part): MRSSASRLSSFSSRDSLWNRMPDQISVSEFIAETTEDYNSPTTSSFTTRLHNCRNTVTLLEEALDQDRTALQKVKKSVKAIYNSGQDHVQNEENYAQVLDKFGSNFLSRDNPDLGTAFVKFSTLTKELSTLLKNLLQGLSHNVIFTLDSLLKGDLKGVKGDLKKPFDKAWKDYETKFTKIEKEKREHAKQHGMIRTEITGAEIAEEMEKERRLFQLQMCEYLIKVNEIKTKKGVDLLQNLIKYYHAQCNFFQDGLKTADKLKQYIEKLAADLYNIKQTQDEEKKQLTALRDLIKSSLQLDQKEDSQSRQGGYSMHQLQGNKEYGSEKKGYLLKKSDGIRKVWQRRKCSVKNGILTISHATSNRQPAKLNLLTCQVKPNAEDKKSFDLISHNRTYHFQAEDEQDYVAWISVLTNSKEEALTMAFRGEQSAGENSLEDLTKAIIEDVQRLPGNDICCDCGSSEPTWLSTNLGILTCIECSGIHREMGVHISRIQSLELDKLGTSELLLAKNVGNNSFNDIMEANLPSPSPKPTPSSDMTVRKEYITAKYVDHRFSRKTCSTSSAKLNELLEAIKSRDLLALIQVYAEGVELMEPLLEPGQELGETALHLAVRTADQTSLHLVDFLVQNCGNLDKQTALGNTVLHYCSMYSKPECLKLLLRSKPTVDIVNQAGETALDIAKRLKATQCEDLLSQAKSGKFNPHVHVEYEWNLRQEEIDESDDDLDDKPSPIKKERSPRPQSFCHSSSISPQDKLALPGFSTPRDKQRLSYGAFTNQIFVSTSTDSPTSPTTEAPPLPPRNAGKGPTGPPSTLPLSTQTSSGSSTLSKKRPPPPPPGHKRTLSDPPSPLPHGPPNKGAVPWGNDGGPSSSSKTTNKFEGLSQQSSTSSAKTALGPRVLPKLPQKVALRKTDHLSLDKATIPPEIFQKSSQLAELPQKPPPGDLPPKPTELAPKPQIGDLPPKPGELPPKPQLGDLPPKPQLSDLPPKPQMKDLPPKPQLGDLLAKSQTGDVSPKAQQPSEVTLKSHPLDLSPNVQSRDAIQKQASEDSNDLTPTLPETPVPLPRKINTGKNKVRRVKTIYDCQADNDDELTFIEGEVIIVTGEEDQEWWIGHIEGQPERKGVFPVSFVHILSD
# Sentrin-specific protease 1, sequence (Q9P0U3 whole entry, the tested form may be a part): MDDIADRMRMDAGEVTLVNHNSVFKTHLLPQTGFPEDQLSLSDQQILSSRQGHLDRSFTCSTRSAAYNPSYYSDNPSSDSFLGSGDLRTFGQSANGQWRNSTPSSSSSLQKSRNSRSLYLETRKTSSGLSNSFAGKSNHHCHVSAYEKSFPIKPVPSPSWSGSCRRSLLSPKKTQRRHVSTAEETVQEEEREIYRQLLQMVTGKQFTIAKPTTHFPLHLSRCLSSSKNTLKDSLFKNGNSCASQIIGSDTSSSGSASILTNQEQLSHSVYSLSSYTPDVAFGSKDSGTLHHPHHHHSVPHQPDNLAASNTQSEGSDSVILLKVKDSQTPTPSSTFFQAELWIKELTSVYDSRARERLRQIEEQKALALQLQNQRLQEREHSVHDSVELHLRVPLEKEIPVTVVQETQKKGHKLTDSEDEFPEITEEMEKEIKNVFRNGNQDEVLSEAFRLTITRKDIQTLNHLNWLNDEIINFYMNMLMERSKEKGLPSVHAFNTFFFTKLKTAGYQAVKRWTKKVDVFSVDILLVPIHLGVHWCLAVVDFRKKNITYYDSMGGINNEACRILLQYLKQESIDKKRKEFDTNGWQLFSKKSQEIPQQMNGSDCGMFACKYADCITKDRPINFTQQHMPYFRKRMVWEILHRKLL
# Genome polyprotein, sequence (P29990 2492-3391 limits assumed): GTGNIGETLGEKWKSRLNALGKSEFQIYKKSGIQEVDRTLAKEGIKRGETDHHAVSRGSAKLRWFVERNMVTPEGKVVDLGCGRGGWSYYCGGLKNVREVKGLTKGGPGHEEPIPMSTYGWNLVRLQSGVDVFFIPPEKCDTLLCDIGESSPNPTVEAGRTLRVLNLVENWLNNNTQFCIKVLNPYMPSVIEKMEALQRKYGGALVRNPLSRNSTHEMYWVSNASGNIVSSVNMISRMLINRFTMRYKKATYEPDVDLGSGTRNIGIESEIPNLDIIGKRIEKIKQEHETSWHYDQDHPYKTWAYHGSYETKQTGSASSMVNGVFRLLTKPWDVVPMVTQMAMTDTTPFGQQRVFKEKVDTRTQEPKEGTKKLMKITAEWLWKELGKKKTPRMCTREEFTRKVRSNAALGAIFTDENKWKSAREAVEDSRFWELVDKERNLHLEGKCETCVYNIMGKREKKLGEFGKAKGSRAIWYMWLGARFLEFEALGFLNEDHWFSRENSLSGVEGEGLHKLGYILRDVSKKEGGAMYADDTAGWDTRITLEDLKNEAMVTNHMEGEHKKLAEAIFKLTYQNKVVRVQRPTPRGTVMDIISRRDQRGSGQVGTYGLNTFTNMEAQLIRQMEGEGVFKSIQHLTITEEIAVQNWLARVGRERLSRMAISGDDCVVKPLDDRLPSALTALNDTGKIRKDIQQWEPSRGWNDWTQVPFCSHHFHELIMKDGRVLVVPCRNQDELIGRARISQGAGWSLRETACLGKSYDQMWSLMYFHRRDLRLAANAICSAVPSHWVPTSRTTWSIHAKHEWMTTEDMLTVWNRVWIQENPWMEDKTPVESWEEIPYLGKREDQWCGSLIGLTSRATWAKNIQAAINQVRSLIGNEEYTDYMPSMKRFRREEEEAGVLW
# Carboxy-terminal domain RNA polymerase II polypeptide A small phosphatase 1, sequence (Q9GZU7 whole entry, the tested form may be a part): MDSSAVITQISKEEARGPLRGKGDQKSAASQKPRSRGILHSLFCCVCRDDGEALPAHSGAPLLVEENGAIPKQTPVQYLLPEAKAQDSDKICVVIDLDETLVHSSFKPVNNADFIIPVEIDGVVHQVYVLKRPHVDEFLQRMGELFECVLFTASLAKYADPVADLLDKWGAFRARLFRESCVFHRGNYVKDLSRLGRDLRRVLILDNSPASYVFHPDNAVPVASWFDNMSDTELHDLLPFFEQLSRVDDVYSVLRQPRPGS
smiles,measurement,setting,value
Cc1nc2ccc(NS(=O)(=O)c3ccc(F)cc3F)cc2s1,IC50,[1],18.4 µM (active)
CCCCCC(=O)Nc1cc(S(=O)(=O)O)cc2cc(S(=O)(=O)O)cc(O)c12,IC50,[2],30 µM (active)
same,IC50,[3],6.81 µM (active)
same,IC50,[4],19.2 µM (active)
same,IC50,[5],0.92 µM (active)
same,IC50,[6],2.29 µM (active)
same,IC50,[7],31.7 µM (active)
COc1ccccc1Nc1cc2cc(Br)ccc2c(=O)[nH]1,AC50,[8],> 120 µM (inactive)
same,IC50,[9],1.51 µM (active)
same,EC50,[10],23.3 µM (active)
same,IC50,[11],165 µM (inactive)
same,IC50,[12],10.7 µM (inactive)
CC1CCCCC1NC(=O)COC(=O)c1c2c(nc3ccccc13)/C(=C\c1ccco1)CC2 (configuration not stated),IC50,[13],5.27 µM (active)
same,IC50,[14],6.81 µM (active)
same,IC50,[15],14.6 µM (active)
COc1ccc(CN(C)C[C@@H]2Oc3c(NC(=O)c4ccncc4)cccc3C(=O)N([C@H](C)CO)C[C@H]2C)cc1,IC50,[16],5.91 µM (inactive)
same,IC50,[17],> 100 µM (inactive)
same,IC50,[18],5.91 µM (inactive)
same,IC50,[19],> 100 µM (inactive)
same,AC50,[20],0.361 µM (active)
same,IC50,[21],2.62 µM (inactive)
C[C@@H]1CN([C@@H](C)CO)C(=O)Cc2cc(NS(=O)(=O)c3ccc(F)cc3)ccc2O[C@@H]1CN(C)Cc1ccc(Cl)c(Cl)c1,AC50,[22],11 µM (active)
